In patent US10485814B2, “Nicotinamide riboside analogs and pharmaceutical compositions and uses thereof” (GlaxoSmithKline Intellectual Property (No. 2) Limited, priority 2014, dated 2019):
Entries after “also recorded” stand apart in the source; their conditions may differ.

How the values were obtained:
[1] = Plasma hydrolysis of nicotinamide riboside analogs to NR (incubation with rat plasma, LC/MS/MS); type: in vitro ADME; details: 10 mM, incubated 30 min at 37° C.
Procedure: Compounds were diluted with rat plasma to a concentration of 10 millimolar (mM). Samples were incubated for 30 min at 37° C., taking 50 microL aliquots for analysis at 0 and 30 min. The aliquots were loaded onto a deep 96 well plate, then 350 microL of 0.1% (v:v) formic acid in acetonitrile was added to each well. The plate was covered and sealed to prevent evaporation, then it was placed on an orbital plate shaker set to 800-900 rps for 5-10 minutes. Next, the plate was centrifuged at around 3000 rpm for 5 min to provide a clear supernatant. For LC/MS/MS analysis, 200 microL of supernatant from each well was transferred onto a clean plate, which was subsequently capped and placed into an autosampler.
(§1) LCMS Conditions. For each well, a 10 microL sample was injected via autosampler onto a Chromolithe Performance, RP-18e (100×4.6 mm) column, and eluted with a binary gradient. Solvent A=0.1% formic acid, 0.1% N,N-dibutyl-N-methylamine (DBME) in 2 mM aqueous ammonium acetate (1:1:1000 v:v:v). Solvent B=0.1% formic acid in acetonitrile (1:1000 v:v). The solvent gradient was as follows: 0-0.22 min, 95:5 A:B; […], 95:5 A:B to 30:70 A:B (linear gradient); 5.05-6.05 min, 30:70 A:B; 6.05-6.60 min, 30:70 A:B to 95:5 A:B (linear gradient); 6.60-7.15 min, 95:5 A:B; stop elution at 7.15 min. Nicotinamide riboside eluted at approximately 1.7 min. A triple-quadrupole mass spectrometer was employed for peak identification. The identity of the analyte was confirmed by MS observation of a Q1 peak at m/z=255 (M)^+, and a Q3 peak at m/z=123.1 (M-C5H8O4)^+.
The results are shown in FIG. 3, with the release of free nicotinamide riboside measured using by HPLC-MS at 0, 30, and 60 minute time points (columns 5, 6, and 7 of table shown in FIG. 3). For each of NR esters in Table 3, except nicotinamide riboside tribenzoate, nicotinamide riboside was detected at the 30 minute time point.

[2] = Plasma/blood nicotinamide riboside levels in orally dosed mice (LCMS); type: in vivo; details: oral gavage 500 mg/kg in PBS; for plasma nicotinamide riboside levels: both 2 h and 6 h post-dose
Procedure: Compounds were suspended in phospho-buffered saline (PBS) solution at 125 mg/mL. Eight mice were dosed via oral gavage with study compound at 500 mg/kg, (20 mg compound in 160 microL of PBS for a 40 g mouse). Four mice were euthanized via CO2 asphyxiation at 2 h post-dose, then the remaining four were euthanized at 6 h post-dose, and blood was collected immediately following euthanasia via cardiac puncture, orbital bleed, or tail vein nick. Approximately 600 microL of blood was collected from each mouse. The blood samples were diluted with 5 volumes of 70% (1% sulfosalicylic acid/1 microM DTE/10 microM CD-38 inhibitor)/30% (37% 10 mM aqueous ammonium bicarbonate/63% acetonitrile). The mixture was vortexed, then centrifuged at 3000 rpm for 10 min at 4° C. to give a transparent supernatant. A 10 microL portion of the supernatant was analyzed by LCMS, using the conditions below.
as §1, with “injected” for “injected via autosampler”, “A:B;” for “A:B; stop”, “elution was stopped” for “elution”, “(M)+,” for “(M)^+,”
In the bar graph in FIG. 5, compounds are shown on the x-axis, and comparative LCMS signal is shown on the y-axis; with each compound dosed in mice at 500 mg study compound per 1000 g mouse as a solution or suspension in phospho-buffered saline solution (PBS) (A=blank control (PBS), B=nicotinic acid riboside hydride ethyl ester triacetate, C=Nicotinamide riboside hydride triisobutyrate, D=Nicotinamide riboside hydride tri-n-butyrate, E=Nicotinamide riboside hydride tripropionate, F=nicotinamide riboside hydride tribenzoate). As shown, samples were taken 2 hours and 6 hours post dose. Also as shown, samples were kept cold (4° C.) or at room temperature (approximately 23° C.) before analysis.

C57BL/6 DIO mice = assay: NRH triacetate efficacy in DIO (Diet-Induced Obesity) mice; type: in vivo
Procedure: C57BL/6 DIO mice and lean controls were purchased from Taconic (Hudson, N.Y.). All mice were fed Purina 5001 chow ad libitum from weaning until 6 weeks of age, then DIO mice were fed a diet containing 60% fat, ad libitum. When the mice were 18 weeks old, dosing was begun. Mice were segregated into groups of 8, with group A receiving vehicle (1:1 (v:v) PEG400: water), group B receiving 100 mg/kg nicotinamide riboside hydride triacetate as a solution in vehicle, group C receiving 500 mg/kg nicotinamide riboside hydride triacetate as a solution in vehicle, and group D (chow-fed lean control mice) receiving vehicle. The mice were dosed once per day via oral gavage for six weeks. After three weeks of dosing, body weights, post-prandial blood glucose, and post-prandial blood insulin levels were measured using commercially available kits. After four weeks of dosing, fasted blood glucose and fasted blood insulin levels were measured. Nicotinamide riboside and NAD levels were measured after four weeks of dosing, using the same extraction and LCMS protocol as described in Example 21 with NAD giving an LC retention time=2.5 min, MS Q1 peak, m/z=664(M+H)+, Q3 peak, m/z=428 (M-Cl1H13N2O4). Statistical analysis was performed using one-way ANOVA, and Dunnett's post test.
Chow-fed mice were used as non-diabetic controls.

[3] = Gravimetric Vapor Sorption (GVS); type: physicochemical; details: 90% RH, 25° C.
Procedure: Gravimetric Vapor Sorption (GVS): Samples were analyzed using a VTI corporation (now part of TA Instruments) SGA-100 with Cahn microbalance equipped with quartz sample and reference pans. Samples were dried in the SGA-100 under dry nitrogen for 5 hours at 25° C. followed by a moisture absorption step ramp from 5% relative humidity (RH) to 95% or 90% RH followed by a desorption step ramp back to 5% or 10% RH (all steps at 25° C.). The samples were held at each % RH step for 4 hours.

HaCaT cells = assay: H2O2-induced reactive oxygen species (ROS) in HaCaT cells (CellROX deep red); type: cell-based, human
Procedure: HaCaT cells were grown as described in example 23 and were seeded in 96-well plates (Nunc™ black with optical bottom, Thermo Fisher Scientific, Inc., Waltham, Mass.) with a density at 2×10^4 cells per well and 100 μl medium in each well, and grown overnight before treatments. Stock solutions of NRH and other test compounds were prepared and diluted to 2× of final treatment concentrations in DMEM medium in 96-well storage plate as indicated in the FIG. 11. HaCaT Cells were treated in triplicates by adding 100 μl of diluted solutions of test compounds (2×) to each well containing 100 μl medium already. Cells were incubated in the presence of test compounds for 3 hrs. At the end of 3 hr incubation, cells were washed once with 200 μl DPBS with Ca^++ and Mg^++ (Life Technologies) and then fed with 100 μl DMEM medium each well containing H2O2 at 250 μM (as a ROS (reactive oxygen species) inducer, Sigma). After 30 min incubation, cells were washed once with 200 μl DPBS with Ca^++ and Mg^++ and CellROX deep red reagent (2.5 mM stock solution, Life Technologies) was added to the medium to a final concentration of 5 μM. After 1 hr incubation at 37° C., 5% CO2, Cells were washed for 3 times with DPBS, fluorescence signal was read at Ex. 640 nm and Em. 665 nm in Biotek Synergy H4 microplate reader (BioTek, Winooski, Vt.). Untreated cells were served as controls (normalized to 1). All the treated samples were normalized to the untreated control.

[4] = 100 and 500 mg/kg once per day orally, after four weeks of dosing
[5] = oral gavage once per day 100 or 500 mg/kg, post-prandial, after three weeks of dosing

SMILES	conversion to free nicotinamide riboside [1]	plasma nicotinamide riboside levels [2]	further results
NC(=O)C1=CN([C@@H]2O[C@H](COC(=O)c3ccccc3)[C@@H](OC(=O)c3ccccc3)[C@H]2OC(=O)c2ccccc2)C=CC1 [NRH tribenzoate, (2R,3R,4R,5R)-2-((benzoyloxy)methyl)-5-(3-carbamoylpyridin-1(4H)-yl)tetrahydrofuran-3,4-diyl dibenzoate]	not significantly converted to free nicotinamide riboside		nicotinamide riboside level ([2]; 2 h post-dose): only a very modest increase
CC(=O)OC[C@H]1O[C@@H](N2C=CCC(C(N)=O)=C2)[C@H](OC(C)=O)[C@@H]1OC(C)=O [NRH triacetate, (2R,3R,4R,5R)-2-(acetoxymethyl)-5-(3-carbamoylpyridin-1(4H)-yl)tetrahydrofuran-3,4-diyl diacetate]	converted to free nicotinamide riboside to a significant degree		blood NAD levels (C57BL/6 DIO mice; [4]): rose in a dose-dependent manner; also recorded: rise in a NRH-triacetate dose-dependent manner; blood nicotinamide riboside levels (C57BL/6 DIO mice; [4]): rose in a dose-dependent manner; also recorded: rise in a NRH-triacetate dose-dependent manner; blood glucose levels (C57BL/6 DIO mice; [5]): reduced; blood insulin levels (C57BL/6 DIO mice; [5]): reduced; GVS weight gain from the dried state [3]: greater than 12%
OCCc1ccc(O)c(O)c1 [Hydroxyterosol]			H2O2-induced ROS (HaCaT cells; 3 hr pre-incubation then 250 μM H2O2, Hydroxyterosol 0.005%, niacinamide 4.5 mM, NRH several concentrations): reduced H2O2-induced ROS
CC(C)C(=O)OC[C@H]1O[C@@H](N2C=CCC(C(N)=O)=C2)[C@H](OC(=O)C(C)C)[C@@H]1OC(=O)C(C)C [NRH triisobutyrate, (2R,3R,4R,5R)-2-(3-carbamoylpyridin-1(4H)-yl)-5-((isobutyryloxy)methyl)-tetrahydrofuran-3,4-diyl bis(2-methylpropanoate)]	converted to free nicotinamide riboside to a significant degree	raised plasma nicotinamide riboside levels substantially	
CCCC(=O)OC[C@H]1O[C@@H](N2C=CCC(C(N)=O)=C2)[C@H](OC(=O)CCC)[C@@H]1OC(=O)CCC [NRH tributyrate, (2R,3R,4R,5R)-2-((butyryloxy)methyl)-5-(3-carbamoylpyridin-1(4H)-yl)tetrahydrofuran-3,4-diyl dibutyrate]	converted to free nicotinamide riboside to a significant degree	raised plasma nicotinamide riboside levels substantially	
CCC(=O)OC[C@H]1O[C@@H](N2C=CCC(C(N)=O)=C2)[C@H](OC(=O)CC)[C@@H]1OC(=O)CC [NRH tripropionate, (2R,3R,4R,5R)-2-(3-carbamoylpyridin-1(4H)-yl)-5 ((propionyloxy)methyl) tetrahydrofuran-3,4-diyl dipropionate]	converted to free nicotinamide riboside to a significant degree	raised plasma nicotinamide riboside levels substantially	
OO [Example H2O2]			level of ROS (HaCaT cells; 250 μM H2O2, 30 min, normalized to untreated control): ~6 fold
